Patent US20130245026A1, “TREATMENT OF CANCER WITH TOR KINASE INHIBITORS” (SIGNAL PHARMACEUTICALS, LLC, priority 2012, published 2013)
pIC50: −log10 of the molar value. Like-named read-outs stand apart in the source and are kept apart here.

Columns and labels:
A253 [1] = experiment: Growth inhibition assay for head and neck (HN) cancer cell lines; assay type: cell-based; settings: Homo sapiens, 72 hours, Cell Titer-Glo
Method: (§1) Growth Inhibition Assay for Head and Neck (HN) Cancer Cell Lines.
(§2) A serial titration was performed to produce a working concentration range of 1.5 μM to 10 mM. Aliquots to produce final concentrations of 1.5 nM to 10 μM were spotted via an acoustic dispenser (EDC ATS-100) into an empty 384-well plate. […] The DMSO concentration was kept constant for a final assay concentration of 0.1% DMSO. Plates were replicated for use with different cell lines and testing periods. After compound plate replication, all plates were sealed (Agilent ThermoLoc) and stored at −20° C. for up to 1 month. […] When ready for testing, plates were removed from the freezer, thawed, and unsealed just prior to the addition of the test cells. Prior to testing, cells were grown and expanded in culture flasks to provide sufficient amounts of starting material. Cells were then diluted to the appropriate densities and added directly to the compound-spotted 384-well plates. Cells were allowed to grow for 72 hours at 37° C./5% CO2. At the time when compound was added (t0), initial cell number was assessed via a viability assay (Cell Titer-Glo) by quantifying the level of luminescence generated by ATP present in viable cells. After 72 hours, cell viability of compound-treated cells was assessed via Cell Titer-Glo and luminescence measurement. […] A control cell line (the lung tumor cell line, A549) was included in each of the assays. The compound response against this control cell line was monitored closely to enable comparison of the data generated through the assay period. All data were normalized and presented as a percentage of the DMSO-treated cells. Results were then expressed as a GI50 value. The GI50 value corrects for the cell count at time zero.

BHY [2] = experiment: as above; assay type: cell-based; settings: 72 hours, Cell Titer-Glo
Method: as §1, §2

CAL-27 [3] = experiment: as above; assay type: cell-based; settings: Homo sapiens, 72 hours, Cell Titer-Glo
Method: as §1, §2

CAL-33 [4] = experiment: as above; assay type: cell-based; settings: Homo sapiens, 72 hours, Cell Titer-Glo
Method: as §1, §2

Detroit562 [5] = experiment: as above; assay type: cell-based; settings: Homo sapiens, Detroit 562, 72 hours, Cell Titer-Glo
Method: as §1, §2

FADU [6] = experiment: as above; assay type: cell-based; settings: Homo sapiens, 72 hours, Cell Titer-Glo
Method: as §1, §2

HN [7] = experiment: as above; assay type: cell-based; settings: 72 h
Method: as §1, §2

RPMI-2650 [8] = experiment: as above; assay type: cell-based; settings: Homo sapiens, 72 hours, Cell Titer-Glo
Method: as §1, §2

SCC-15 [9] = experiment: as above; assay type: cell-based; settings: Homo sapiens, 72 hours, Cell Titer-Glo
Method: as §1, §2

SCC-25 [10] = experiment: as above; assay type: cell-based; settings: Homo sapiens, 72 hours, Cell Titer-Glo
Method: as §1, §2

SCC-9 [11] = experiment: as above; assay type: cell-based; settings: Homo sapiens, 72 hours, Cell Titer-Glo
Method: as §1, §2

A253 [12] = experiment: Apoptosis assay for HN cancer cell lines (Caspase 3/7-Glo); assay type: cell-based; settings: 24 hours
Method: (§3) Apoptosis Assay for HN Cancer Cell Lines.
(§4) Prior to testing, cells were grown and expanded in culture flasks to provide sufficient amounts of starting material. Cells were then diluted to their desired densities and added directly to compound-spotted 384-well plates. Cells were allowed to grow for 24 hours in 5% CO2 at 37° C. The apoptotic response was assessed by quantifying the activities of caspase 3 and caspase 7 (Caspase 3/7-Glo) in treated cells and control cells at the 24-hour time point. All data was normalized and represented as a value relative to the DMSO-treated cells. Results were then expressed as CalX, which is the minimum compound concentration required to double the levels of caspase 3/7 relative to those of the DMSO-treated cells during their treatment period.

BHY [13] = experiment: as above; assay type: cell-based; settings: 24 hours
Method: as §3, §4

CAL-27 [14] = experiment: as above; assay type: cell-based; settings: 24 hours
Method: as §3, §4

CAL-33 [15] = experiment: as above; assay type: cell-based; settings: 24 hours
Method: as §3, §4

Detroit562 [16] = experiment: as above; assay type: cell-based; settings: 24 hours
Method: as §3, §4

FADU [17] = experiment: as above; assay type: cell-based; settings: 24 hours
Method: as §3, §4

HN [18] = experiment: as above; assay type: cell-based; settings: minimum concentration to double caspase 3/7 vs DMSO, 24 hours
Method: as §3, §4

RPMI-2650 [19] = experiment: as above; assay type: cell-based; settings: 24 hours
Method: as §3, §4

SCC-15 [20] = experiment: as above; assay type: cell-based; settings: 24 hours
Method: as §3, §4

SCC-25 [21] = experiment: as above; assay type: cell-based; settings: 24 hours
Method: as §3, §4

SCC-9 [22] = experiment: as above; assay type: cell-based; settings: 24 hours
Method: as §3, §4

[23] = test system: patient-derived tumor cells; experiment: Proliferation assay using patient tumor cells (EdU incorporation, 3D matrix); assay type: cell-based; settings: Homo sapiens
Method: (§5) Proliferation and Apoptosis Assay Using Patient Tumor Cells.
(§6) Cryopreserved patient-derived tumor cells were resurrected from liquid nitrogen storage and conditioned on coated plates prior to drug treatment. […] The mitotic activity of the cells was assessed by measuring ethynyl […] (EdU) incorporation during S-phase. The untreated control wells received medium containing DMSO (vehicle used to dissolve each compound and EdU). […] The apoptotic activity of the cells was assessed by measuring CellEvent incorporation due to caspase 3 and 7 activation. The untreated control wells received medium containing DMSO (vehicle used to dissolve each compound and CellEvent). After conditioning, cell lines were plated on a 3D matrix in two 96-well plates. The cells were allowed to settle and form spheroid structures for 48 hours. Then, 48 hours after plating, the cells were treated with compound.
The cells were treated only on Day 1. For the last 48 hours of the treatment, EdU was added to measure the cell proliferation. At the end of the treatment, plates were fixed, permeabilized and stained for EdU uptake (proliferation marker) and DAPI (nuclear marker). Plates were imaged at 4× magnification using ImageXpress Micro (Molecular Devices, Sunnyvale, Calif.). Seven z-stacks at 5 sites per well were captured and deconvoluted to create the images for analysis. For the proliferation assay, images were analyzed using a Multi Wave Scoring Algorithm (Molecular Devices, Sunnyvale, Calif.) to quantify mean fluorescent intensities (MFI) of each well for EdU. The EdU MFI's for the treated wells were normalized to those of the untreated wells to generate the compound response curves.

[24] = test system: patient-derived tumor cells; experiment: Apoptosis assay using patient tumor cells (CellEvent, caspase 3 and 7); assay type: cell-based, human; settings: concentration between 0.1-10 μM; 48 hours of treatment
Method: as §5, §6
The cells were treated only on Day 1. After 48 hours of compound treatment, CellEvent was added to measure the apoptotic activity in cells. […] For the Apoptosis assay, images were analyzed using a Multi Wavelength Scoring Algorithm (Molecular Devices, Sunnyvale, Calif.) to quantify mean fluorescent intensities (MFI) of each well for activated caspase 3 and 7 using CellEvent. The CellEvent mean fluorescence intensities (MFI) of treated wells and untreated controls were averaged and plotted.

[25] = corrected for cell count at time zero
[26] = Table 1, minimum concentration to double caspase 3/7 vs DMSO
[27] = minimum concentration to double caspase 3/7 vs DMSO

CCN1C(=O)CNc2ncc(-c3ccc(-c4nc[nH]n4)nc3C)nc21 [Compound 1, 1-ethyl-7-(2-methyl-6-(1H-1,2,4-triazol-3-yl)pyridin-3-yl)-3,4-dihydropyrazino[2,3-b]pyrazin-2(1H)-one]
pIC50 (A253 [1]): 6.42 | GI50 (A253 [1]; [25]): 303 nM | pIC50 (BHY [2]): 6.68 | GI50 (BHY [2]; [25]): 39.5 nM | pIC50 (CAL-27 [3]): 6.75 | GI50 (CAL-27 [3]; [25]): 144 nM | pIC50 (CAL-33 [4]): 7.16 | GI50 (CAL-33 [4]; [25]): 42.7 nM | pIC50 (Detroit562 [5]): 6.60 | GI50 (Detroit562 [5]; [25]): 169 nM | pIC50 (FADU [6]): 5.93 | GI50 (FADU [6]; [25]): 792 nM | GI50 (HN [7]): 117 nM | pIC50 (HN [7]): 6.75 | pIC50 (RPMI-2650 [8]): 6.41 | GI50 (RPMI-2650 [8]; [25]): 219 nM | pIC50 (SCC-15 [9]): 6.17 | GI50 (SCC-15 [9]; [25]): 56.8 nM | pIC50 (SCC-25 [10]): 6.75 | GI50 (SCC-25 [10]; [25]): 127 nM | pIC50 (SCC-9 [11]): 6.44 | GI50 (SCC-9 [11]; [25]): 129 nM | Cal X (A253 [12]; [26]): > 10 µM | CalX (A253 [12]; [27]): >10 µM | Cal X (BHY [13]; [26]): > 10 µM | CalX (BHY [13]; [27]): >10 µM | Cal X (CAL-27 [14]; [26]): > 10 µM | CalX (CAL-27 [14]; [27]): >10 µM | Cal_X (CAL-33 [15]; Table 1, minimum concentration to double caspase 3/7 vs DMSO, in µM): 0.8764 | CalX (CAL-33 [15]; [27]): 0.8764 µM | Cal X (Detroit562 [16]; [26]): > 10 µM | CalX (Detroit562 [16]; [27]): >10 µM | Cal X (FADU [17]; [26]): > 10 µM | CalX (FADU [17]; [27]): >10 µM | CalX (HN [18]): >10 µM | Cal X (RPMI-2650 [19]; [26]): > 10 µM | CalX (RPMI-2650 [19]; [27]): >10 µM | Cal X (SCC-15 [20]; [26]): > 10 µM | CalX (SCC-15 [20]; [27]): >10 µM | Cal X (SCC-25 [21]; [26]): > 10 µM | CalX (SCC-25 [21]; [27]): >10 µM | Cal X (SCC-9 [22]; [26]): > 10 µM | CalX (SCC-9 [22]; [27]): >10 µM | pIC50 ([23]; Unknown, Left palate, read-out: Prolif IC50): 6.26 | pIC50 ([23]; person, H&N carcinoma, Left superior segment, read-out: Prolif IC50): 6.59 | pIC50 ([23]; person, H&N carcinoma, Lung, read-out: Prolif IC50): 6.47 | pIC50 ([23]; person, Larynx carcinoma, Left side neck, read-out: Prolif IC50): 6.99 | pIC50 ([23]; person, Squamous carcinoma H&N, Neck, read-out: Prolif IC50): 5.77 | pIC50 ([23]; person, Squamous carcinoma H&N, Right lower lobe lung, read-out: Prolif IC50): 6.86 | pIC50 ([23]; person, Squamous carcinoma H&N, Right nasal, read-out: Prolif IC50): 6.62 | pIC50 ([23]; person, Squamous cell H&N, Cervical lymph node, read-out: Prolif IC50): 6.84 | pIC50 ([23]; person, Squamous cell H&N, Left chest wall, read-out: Prolif IC50): 6.81 | pIC50 ([23]; person, Squamous cell H&N, Left neck lymph node, read-out: Prolif IC50): 6.30 | pIC50 ([23]; person, Squamous cell H&N, Left neck, cervical, read-out: Prolif IC50): 6.37 | pIC50 ([23]; person, Squamous cell H&N, Left tonsil, read-out: Prolif IC50): 6.79 | pIC50 ([23]; person, Squamous cell H&N, Mass, left latisimal muscle, read-out: Prolif IC50): 6.94 | pIC50 ([23]; person, Squamous cell H&N, Mass, skull base excision, read-out: Prolif IC50): 6.80 | pIC50 ([23]; person, Squamous cell H&N, Pleural fluid, read-out: Prolif IC50): 6.27 | pIC50 ([23]; person, Squamous cell H&N, Right lower lobe lung, read-out: Prolif IC50): 6.49 | pIC50 ([23]; person, Squamous cell H&N, Right pleural biopsy, read-out: Prolif IC50): 6.36 | pIC50 ([23]; person, Squamous cell tongue, Right axilliary node, read-out: Prolif IC50): 6.50 | pIC50 ([23]; person, Tongue, Left neck mass, read-out: Prolif IC50): 6.42 | pIC50 ([23]; span over all patient tumor cell samples of Table 3, read-out: inhibition of proliferation of patient tumor cells, IC50): 5.74 to 7.00 | apoptosis (activated caspase 3 and 7, CellEvent MFI) [24]: Apoptosis was observed in some patient-derived samples
